Tests used:
[1] = target: T1, Estrogen receptor (Homo sapiens, UniProt P03372)
T1 sequence (P03372 whole entry): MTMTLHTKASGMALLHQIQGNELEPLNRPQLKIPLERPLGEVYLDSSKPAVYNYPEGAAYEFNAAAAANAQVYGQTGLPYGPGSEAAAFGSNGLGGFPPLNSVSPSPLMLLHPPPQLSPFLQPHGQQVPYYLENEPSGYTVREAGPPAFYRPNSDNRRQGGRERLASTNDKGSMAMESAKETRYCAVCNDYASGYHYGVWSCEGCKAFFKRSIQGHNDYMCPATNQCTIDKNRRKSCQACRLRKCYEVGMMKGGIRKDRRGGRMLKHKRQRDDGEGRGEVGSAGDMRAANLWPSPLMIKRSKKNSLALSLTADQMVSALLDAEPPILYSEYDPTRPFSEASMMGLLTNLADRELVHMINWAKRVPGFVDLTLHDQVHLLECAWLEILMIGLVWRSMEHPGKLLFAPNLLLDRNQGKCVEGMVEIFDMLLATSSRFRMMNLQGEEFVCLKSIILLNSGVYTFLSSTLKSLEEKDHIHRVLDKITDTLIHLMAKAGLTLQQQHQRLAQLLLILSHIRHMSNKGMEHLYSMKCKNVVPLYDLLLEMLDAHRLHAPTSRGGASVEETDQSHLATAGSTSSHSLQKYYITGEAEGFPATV
Description: Binding affinity for estrogen receptor alpha

[2] = target: Estrogen receptor beta (Homo sapiens, UniProt Q92731)
Description: Binding affinity for estrogen receptor beta

[3] = target: Estrogen receptor (Homo sapiens, UniProt Q92731+P03372)
Description: Inhibition of estradiol-stimulated MCF-7 breast adenocarcinoma cell proliferation

Sequence of Estrogen receptor beta (Q92731 whole entry): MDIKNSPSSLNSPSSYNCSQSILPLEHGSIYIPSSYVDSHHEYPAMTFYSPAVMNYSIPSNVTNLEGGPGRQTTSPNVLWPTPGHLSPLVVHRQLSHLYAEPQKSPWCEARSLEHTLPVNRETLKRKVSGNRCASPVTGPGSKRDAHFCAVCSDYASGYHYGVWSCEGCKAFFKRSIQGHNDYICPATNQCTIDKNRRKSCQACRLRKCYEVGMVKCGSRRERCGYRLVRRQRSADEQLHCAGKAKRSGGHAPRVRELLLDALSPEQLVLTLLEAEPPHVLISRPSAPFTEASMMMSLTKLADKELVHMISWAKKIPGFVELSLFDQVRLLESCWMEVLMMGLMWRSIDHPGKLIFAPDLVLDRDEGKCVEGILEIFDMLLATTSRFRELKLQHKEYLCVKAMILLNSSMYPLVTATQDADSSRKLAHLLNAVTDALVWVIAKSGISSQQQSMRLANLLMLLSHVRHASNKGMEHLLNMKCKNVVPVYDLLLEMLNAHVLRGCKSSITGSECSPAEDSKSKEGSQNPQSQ

`Oc1ccc(C2CCc3cc(O)ccc3N2)cc1` (stereo not given) was tested. Which Ki [1] did it give?
Its Ki is 170 nM.

And the Ki [2]?
The Ki was 65 nM.

What does the source list for `Oc1ccc2c(c1)CCC(c1ccccc1)N2Cc1ccc(OCCN2CCCCC2)cc1` (stereo not given)?
Ki [1]: 1.7 nM; Ki [2]: 4 nM; IC50 [3]: 490 nM

For `O=C(c1ccc(OCCN2CCCCC2)cc1)N1c2ccc(O)cc2CCC1c1cccc(O)c1` (stereo not given), which Ki [1] is on record?
The Ki was 37 nM.

And the Ki [2]?
Its Ki is > 1000 nM.

And the IC50 [3]?
The IC50 was 590 nM.

Which Ki [1] does the source give for `Oc1ccc(-c2ccc3cc(O)ccc3n2)cc1` here?
The Ki was 310 nM.

What about the Ki [2] of the same compound?
Its Ki is 35 nM.

`O=C(c1ccc(OCCN2CCCCC2)cc1)N1c2ccc(O)cc2CCC1c1ccc(O)cc1` (stereo not given) was tested. Which Ki [2] did it give?
The Ki was > 1000 nM.

And the IC50 [3]?
Its IC50 is 990 nM.

For `Oc1ccc(C2CCc3cc(O)ccc3N2Cc2ccc(OCCN3CCCC3)cc2)cc1` (stereo not given), which Ki [1] is on record?
Its Ki is 1.1 nM.

What about the IC50 [3] of the same compound?
The IC50 was 68 nM.

`Oc1cccc(C2CCc3cc(O)ccc3N2Cc2ccc(OCCN3CCCCC3)cc2)c1` (stereo not given) was tested. Which Ki [2] did it give?
The Ki was 5.5 nM.
